Test results: US6849405B2, “Translation enhancer element of the human amyloid precursor protein gene” (The Brigham and Women's Hospital, Inc., priority 1997, dated 2005)
Entries after “also recorded” stand apart in the source; their conditions may differ.

Key:
[1] = system: H-ferritin subunit synthesis; assay: H-ferritin subunit synthesis, [35S]-methionine labeling and immunoprecipitation, primary astrocytes; assay type: cell-based; conditions: primary human fetal astrocytes, 0.5 ng/ml, 16 hours
[2] = system: L-ferritin subunit synthesis; assay: L-ferritin subunit synthesis, [35S]-methionine labeling and immunoprecipitation, primary astrocytes; assay type: cell-based; conditions: primary human fetal astrocytes, 0.5 ng/ml, 16 hours
[3] = system: APP protein at the site of the lesion; conditions: injected into rat cerebral cortex; cited from earlier work
[4] = system: ACT-mRNA; assay: Northern blot of ACT-mRNA, astrocytoma cells; assay type: cell-based, human; conditions: astrocytoma cells, 16 hours of IL-1 stimulation, 48 hours blot exposure
Method: Total RNA (10 μg) was extracted from primary astrocytes and astrocytoma cells with a RNA-STAT kit (Tel-Test). RNA samples were denatured in 50% formamide/2.2 M formaldehyde/20 mM MOPS/5 mM sodium acetate/0.5 mM EDTA, pH 7.4, at 60° C. for 10 minutes, electrophoresed on 1.0% agarose-formaldehyde gels, blotted onto Hybond-N filters and immobilized by UV crosslinking and heating filters to 80° C. Filters were prehybridized for 3 hours and hybridized overnight in a solution consisting of 50% formamide, […] denatured salmon sperm DNA, 5×SSC, 0.1% sodium dodecyl sulfate and 5×Denhardt's solution. Following hybridization, filters were washed twice for a total of 1 hour in 2×SSC/0.2% sodium dodecyl sulfate at room temperature and twice each for a total of 1 hour in 0.5×SSC/0.1% sodium dodecyl sulfate at 55° C. Equal loading was verified by ethidium bromide staining, non-specific hybridization of the ACT probe to the 28S rRNA, and by standardized hybridization to the GAPDH cDNA probe as an internal standard. The APP cDNA probe corresponded to the unique internal 1 kb fragment gel purified from the 3 kb APP cDNA (Kang et al. Nature 325: 733 (1987)), the ACT cRNA probe to a PstI/SacI fragment (536-943) in the human ACT cDNA (Chandra, et al., Biochemistry 22: 5055 (1983)) and the GAPDH probe to the human GAPDH gene (Tokunaga, et al., Cancer Res. 47: 5616 (1987)).

Substance: interleukin-1 [IL-1]
- up regulation in H-ferritin subunit synthesis [1]: 4 fold
- up regulation in L-ferritin subunit synthesis [2]: 25%
- steady-state levels of APP protein at the site of the lesion [3]: increase the steady-state level of APP-protein; also recorded: increases the steady-state levels of APP protein
- induction in steady-state levels of ACT-mRNA [4]: 6 fold
